No end group written: not given here.
Tests used:
[1] = tested on: interaction between anti-VprN scFv antibodies and surface-bound BSA-VprN conjugate; assay: Competition ELISA: inhibition of anti-VprN scFv binding to surface-bound BSA-VprN by soluble ligands; set-up: species or system HIV-1; conditions: for inhibition of binding of the three antibodies to VprN-BSA by soluble ligand: Ab1, Ab2, Ab3
Procedure: (§1) The various ELISA assays used in the present work were carried out as follows: MaxiSorb plates (NUNC) were covered overnight with 25-100 μg/ml of the antigen (in Carbonate Buffer 0.05M Na2CO3/0.05M NaHCOs, pH9.6) at 4° C. On the next day, the plates were washed three times with 1×PBS and blocked with 2% BSA in 1×PBS (for antibodies) or 2% Skim Milk (DIFCO) in 1×PBS (for all other molecules) for 2 hours at 37° C. The plates were then washed three times with 1×PBS, and the appropriate ligand (in blocking solution) was added and incubated for 2 hours at 37° C. The plates were then washed three times with 1×PBS and the following detecting agents were added for detecting the antigen-ligand complexes: Avidin-POD (Roche Diagnostics), for biotin labeled molecules (1 unit/ml); anti-M13 monoclonal antibody (Amersham Pharmacia, 1:5000), for the bound phages; and a mix of mouse anti-myc antibody (Sigma, 1:1000) with anti-mouse-HRP antibody (Sigma, 1:2000) for the scFv antibodies. Each detecting agent was dissolved in the appropriate blocking solution (see above). Following incubation for 1 hour at 37° C. with the detecting agent, the plates were washed three times with 1×PBS and the appropriate substrate was added, according to manufacturer instructions.

[2] = tested on: VprN-mediated nuclear import; assay: Nuclear import of FL-BSA-VprN in permeabilized HeLa cells, fluorescence microscopy; type: cell-based; conditions: 1 mg/ml WGA, 4 mM GTP-γ-S, Table 2 (not given)
Procedure: (§2) Nuclear import of rhodamine-labeled BSA-NLS conjugates (FL-BSA-NLS) was performed as described before [Adam (1992) id ibid.; Broder (1997) id ibid.]. Amounts of FL-BSA-NLS substrate for FL-BSA SV40 large T-Ag NLS was 3-5 μg/system and for the FL-BSA-VprN 25 μg/system. Controls included: 1 mg/ml Wheat Germ Agglutinin (WGA), 4 mM of GTP-γ-S, or 1000 units/ml of Hexokinase and 10 mM Glucose. Samples were observed and photographed using confocal fluorescent microscopy.

[3] = tested on: nuclear import of Vpr-GST fusion protein; assay: Nuclear import of FL-Vpr-GST in digitonin permeabilized HeLa cells; type: cell-based; conditions: 5-fold excess unlabeled Vpr-GST
Procedure: as §2
The Vpr-GST fusion protein eluted from the Glutathione-Agarose resin was concentrated by VivaScience concentrators (MWCO 30,000) to a final concentration of 2.5-3.0 mg/ml, dialyzed for 2-3 hours against 1×PBS at 4° C. and labeled with rhodamine-maleimide Molecular Probes) according to manufacturer's instructions. Following 2 hours of incubation at room temperature with rotation, the labeled Vpr-GST fusion protein (FL-Vpr-GST) was purified using Sephadex G-25 fine (Pharmacia). The FL-Vpr-GST was then concentrated again using VivaScience concentrators (MWCO 30,000) and stored at −20° C.

[4] = tested on: Tat-ARM mediated nuclear import; assay: Nuclear import of FL-BSA-Tat conjugates in HeLa cells; type: cell-based; conditions: WGA 1 mg/ml, peptide/FL-BSA-Tat 20/1
[5] = tested on: binding of anti-VprN scFv antibodies to Vpr-GST; assay: Competition ELISA: inhibition of anti-VprN scFv binding to surface-bound Vpr-GST; set-up: species or system HIV-1; conditions: for inhibition of binding of all three antibodies to Vpr-GST by added ligand: Ab1, Ab2, Ab3
Procedure: as §1

[6] = tested on: VprN-BSA conjugate (N-terminal domain of Vpr, amino acids 17-34); assay: ELISA binding to surface-bound BSA-VprN conjugate; set-up: species or system HIV-1; conditions: FIG. 2
Procedure: Panning of the human scFv antibody phage display library [Harrison, J. L. et al. (1996) Methods in Enzymology 267, 83-109; Nissim, A. et al. (1994) EMBO J 13, 692-698] was conducted as follows. Two immunotubes (5 ml, NUNC) were incubated in parallel, with rotation at room temperature overnight, one containing the BSA-VprN conjugate and the other one containing only BSA, both in 0.1 mg/ml carbonate buffer (0.05M Na2CO3/0.05M NaHCO3, pH9.6). Following incubation, the tube with the surface attached BSA-VprN conjugates was washed three times with 1× PBS and then incubated for two hours at 37° C. with 2% (w/v) skim milk (DIFCO) in 1×PBS (2% MPBS). After three washes with 1× PBS, the scFv phage library (4 ml in 1% MPBS) was added and the tube containing the phage particles was incubated for 30 min with, and for 1.5 hours without rotation, at room temperature. The supernatant was then removed and the tube was washed ten times first with 1×PBS containing 0.05% Tween 20 and then with 1×PBS only. For elution of bound phages, 1 ml of 0.1M triethylamine was added, incubated for 10 min at room temperature with rotation, and the triethylamine solution containing the eluted phages collected and mixed with 0.5 ml of 1M Tris-HCl, pH7.4. […]

BSA-SV40 NLS conjugate = target: T1, BSA-SV40 NLS conjugate (SV40, rhodamine- or biotin-labelled in the nuclear import assays; cysteine added at the C-terminus; peptide chemically conjugated to BSA); assay: peptide ELISA on coated BSA-NLS conjugates (FIG. 2A)
T1 construct: also called BSA-SV40 large T-antigen NLS; SV40 NLS-BSA conjugate
Procedure: (§3) The various ELISA assays used in the present work were carried out as follows: MaxiSorb plates (NUNC) were covered overnight with 25-100 μg/ml of the antigen (in Carbonate Buffer 0.05M Na₂CO₃/0.05M NaHCOs, pH9.6) at 4° C. On the next day, the plates were washed three times with 1×PBS and blocked with 2% BSA in 1×PBS (for antibodies) or 2% Skim Milk (DIFCO) in 1×PBS (for all other molecules) for 2 hours at 37° C. The plates were then washed three times with 1×PBS, and the appropriate ligand (in blocking solution) was added and incubated for 2 hours at 37° C. The plates were then washed three times with 1×PBS and the following detecting agents were added for detecting the antigen-ligand complexes: Avidin-POD (Roche Diagnostics), for biotin labeled molecules (1 unit/ml); anti-M13 monoclonal antibody (Amersham Pharmacia, 1:5000), for the bound phages; and a mix of mouse anti-myc antibody (Sigma, 1:1000) with anti-mouse-HRP antibody (Sigma, 1:2000) for the scFv antibodies. Each detecting agent was dissolved in the appropriate blocking solution (see above). Following incubation for 1 hour at 37° C. with the detecting agent, the plates were washed three times with 1×PBS and the appropriate substrate was added, according to manufacturer instructions.

BSA-VprN conjugate = target: T2, BSA-VprN conjugate (HIV-1, rhodamine- or biotin-labelled in the nuclear import assays; cysteine added at the N-terminus; peptide chemically conjugated to BSA); assay: peptide ELISA on coated BSA-NLS conjugates (FIGS. 2A and 2B)
T2 construct: The peptide is printed with superscripts 16 and 34, the text calls it residues 17-34; also called VprN-BSA conjugate; VprN-BSA
Procedure: as §3

[7] = target: anti-VprN scFv antibody Ab1; assay: competition ELISA: free VprN peptide against Ab1 binding to coated BSA-VprN

SV40 NLS peptide: PKKKRKVC (SEQ. ID. NO.7), the SV40 large T-antigen NLS (SV40-NLS with extra C)
inhibition of binding of the three antibodies to VprN-BSA by soluble ligand [1]: No or low inhibition

wheat germ agglutinin [WGA]
inhibition of nuclear import of BSA-VprN conjugate by control agents [2]: inhibited | inhibition of nuclear import of Vpr-GST by control agents [3]: inhibited | inhibition of nuclear import of FL-BSA Tat ARM conjugates by control agents [4]: inhibited

VprN-BSA: BSA molecule bearing about 3-4 covalently attached VprN peptides
inhibition of binding of the three antibodies to VprN-BSA by soluble ligand [1]: inhibited | concentration of soluble ligand inhibiting Ab1 binding to its antigen by 90% ([1]; Ab1, surface-bound VprN-BSA): about 5 μM | fold lower concentration than VprN peptide required to block antibody binding to Vpr-GST [5]: about ten | inhibition of binding of all three antibodies to Vpr-GST by added ligand [5]: strongly inhibited

peptide a: synthetic peptide of the CDR3 random insert of phage A, ISSD (SEQ. ID. NO. 4) (AFMKSGKRFIH; CDR3 random insert sequence of Ab2)
binding of anti-VprN peptide to VprN-BSA conjugate [6]: failed to recognize

Nc1nc2c(ncn2[C@@H]2O[C@H](COP(=O)(O)OP(=O)(O)OP(O)(O)=S)[C@@H](O)[C@H]2O)c(=O)[nH]1 [GTP-γ-S]
inhibition of nuclear import of BSA-VprN conjugate by control agents [2]: partially inhibited | inhibition of nuclear import of Vpr-GST by control agents [3]: partially inhibited

VprN mutant (CNEATLELLPELKNPAVRHF)
inhibition of binding of the three antibodies to VprN-BSA by soluble ligand [1]: No or low inhibition | inhibition of binding of all three antibodies to Vpr-GST by added ligand [5]: no or little inhibition

B1: synthetic anti-VprN peptide a (CDR3 random insert of phage A) (peptide)
peptide: ISSD
modifications: not fully specified
binding result (BSA-SV40 NLS conjugate): no binding | binding result (BSA-VprN conjugate): no binding

B2: synthetic anti-VprN peptide c (CDR3 random insert of phage C) (peptide)
peptide: HFHYKGKLQTF
modifications: not fully specified
binding result (BSA-SV40 NLS conjugate): no binding | binding result (BSA-VprN conjugate): no binding

B3: VprN peptide (free synthetic peptide) (peptide)
peptide: CNEWTLELLEELKNEAVRHF
modifications: cysteine added at the N-terminus
concentration giving 90% inhibition [7]: > 15 µM
